Earlier results, collected in patent US20250090693A1, “BIOCOMPATIBLE COMPOSITION FOR LABELING TARGET LESION, AND PREPARATION METHOD THEREFOR” (NATIONAL CANCER CENTER, priority 2022, published 2025).

Q: Which clinical safety (18 breast cancer patients (T. Kitai, et al., Breast Cancer, 12:211-215, 2005)) does the source give for `CC1(C)C(/C=C/C=C/C=C/C=C2\N(CCCCS(=O)(=O)O)c3ccc4ccccc4c3C2(C)C)=[N+](CCCCS(=O)(=O)[O-])c2ccc3ccccc3c21` [indocyanine green (ICG), indocyanine green] here?
A: safely used clinically

Q: What about the “time after injection until decomposed and disappearing or excreted through urine and feces” value (injected into the human body) of the same compound?
A: about an hour
